The results in this text go back to the Kinase Knowledgebase extract (Sharma et al. 2016).

This test has as its target PIK3CB;PIK3CG;PIK3CD;PIK3CA (human) (UniProt P48736). Description: Inhibition of PIK3CA/PIK3CB/PIK3CD/PIK3CG Kinase Activity.
For the compound `COC[C@H]1OC(=O)/C(=C/N2CCCC2)C2=C(O)C(=O)C3=C([C@H](OC(C)=O)C[C@]4(C)C(=O)CC[C@@H]34)[C@]21C`, the IC50 (usually the concentration needed to halve the response being measured) came out at 1.1 nM.
As to `COC[C@H]1OC(=O)/C(=C/Sc2ccccc2)C2=C(O)C(=O)C3=C([C@H](OC(C)=O)C[C@]4(C)C(=O)CC[C@@H]34)[C@]21C`, the IC50 was 1 nM.
As to `COC[C@H]1OC(=O)/C(=C/NCC(N)=O)C2=C(O)C(=O)C3=C([C@H](OC(C)=O)C[C@]4(C)C(=O)CC[C@@H]34)[C@]21C`, the 50% inhibitory concentration (IC50) amounted to 10 nM.
`COC[C@H]1OC(=O)/C(=C/N)C2=C(O)C(=O)C3=C([C@H](OC(C)=O)C[C@]4(C)C(=O)CC[C@@H]34)[C@]21C` returned an IC50 of 2 nM.
In turn, `COC[C@H]1OC(=O)/C(=C/N(Cc2ccccc2)Cc2ccccc2)C2=C(O)C(=O)C3=C([C@H](OC(C)=O)C[C@]4(C)C(=O)CC[C@@H]34)[C@]21C` came in with an IC50 of 0.3 nM.
Regarding `C=CCN/C=C1/C(=O)O[C@H](COC)[C@@]2(C)C1=C(O)C(=O)C1=C2[C@H](OC(C)=O)C[C@]2(C)C(=O)CC[C@@H]12`, the IC50 is 7.5 nM.
In the case of `COC[C@H]1OC(=O)/C(=C/SC(C)C)C2=C(O)C(=O)C3=C([C@H](OC(C)=O)C[C@]4(C)C(=O)CC[C@@H]34)[C@]21C`, the IC50 turned out to be 0.1 nM.
As to `C=CCN(/C=C1/C(=O)O[C@H](COC)[C@@]2(C)C1=C(O)C(=O)C1=C2[C@H](OC(C)=O)C[C@]2(C)C(=O)CC[C@@H]12)CC=C`, the IC50 amounted to 0.1 nM.
In the case of `COC[C@H]1OC(=O)/C(=C/NCCCN(C)C)C2=C(O)C(=O)C3=C([C@H](OC(C)=O)C[C@]4(C)C(=O)CC[C@@H]34)[C@]21C` it was 1 nM; in that of `COC[C@H]1OC(=O)/C(=C/NCCc2ccccc2)C2=C(O)C(=O)C3=C([C@H](OC(C)=O)C[C@]4(C)C(=O)CC[C@@H]34)[C@]21C`, 2 nM.
`COC[C@H]1OC(=O)/C(=C/N(C)Cc2ccccc2)C2=C(O)C(=O)C3=C([C@H](OC(C)=O)C[C@]4(C)C(=O)CC[C@@H]34)[C@]21C` yielded a 50% inhibitory concentration (IC50) of 0.8 nM.
